Among the data in patent US9115143B2, “Substituted indole derivatives as gamma secretase modulators” (Janssen Pharmaceuticals, Inc., priority 2011, dated 2015) are IC50 values, retold here.

Experiment [1] relates to Aβtotal. Nature of the experiment: Screening for γ-secretase-modulating activity: Aβtotal in supernatant of SKNBE2 cells carrying hAPP 695 wild type (Alphalisa). It counts as cell-based, human. The following applies: overnight incubation, Alphalisa on supernatant. The method, then: (§1) Pharmacology A) Screening of the Compounds of the Invention for γ-Secretase-Modulating Activity
(§2) Screening was carried out using SKNBE2 human neuroblastoma cells carrying the hAPP 695—wild type, grown in Dulbecco's Modified Eagle's Medium/Nutrient mixture F-12 (DMEM/NUT-mix F-12) (HAM) provided by Invitrogen (cat no. 10371-029) containing 5% Serum/Fe supplemented with 1% non-essential amino acids, 1-glutamine 2 mM, Hepes 15 mM, penicillin 50 U/mL (units/mL) en streptomycin 50 μg/mL. Cells were grown to near confluency.
(§3) The screening was performed using a modification of the assay as described in Citron et al (1997) Nature Medicine 3: 67. Briefly, cells were plated in a 384-well plate at 10^4 cells/well in Ultraculture (Lonza, BE12-725F) supplemented with 1% glutamine (Invitrogen, 25030-024), 1% non-essential amino acid (NEAA), penicillin 50 U/mL en streptomycin 50 μg/mL in the presence of test compound at different test concentrations. The cell/compound mixture was incubated overnight at 37° C., 5% CO2. The next day the media were assayed by two sandwich immuno-assays, for Aβ42 and Aβtotal.
(§4) Aβtotal and Aβ42 concentrations were quantified in the cell supernatant using the Aphalisa technology (Perkin Elmer). Alphalisa is a sandwich assay using biotinylated antibody attached to streptavidin coated donorbeads and antibody conjugated to acceptor beads. In the presence of antigen, the beads come into close proximity. The excitation of the donor beads provokes the release of singlet oxygen molecules that trigger a cascade of energy transfer in the acceptor beads, resulting in light emission. To quantify the amount of Aβ42 in the cell supernatant, monoclonal antibody specific to the C-terminus of Aβ42 (JRF/cAβ42/26) was coupled to the receptor beads and biotinylated antibody specific to the N-terminus of Aβ (JRF/AβN/25) was used to react with the donor beads. To quantify the amount of Aβ total in the cell supernatant, monoclonal antibody specific to the N-terminus of Aβ (JRF/AβN/25) was coupled to the receptor beads and biotinylated antibody specific to the mid region of Aβ (biotinylated 4G8) was used to react with the donor beads.
(§5) To obtain the values reported in Table 3, the data are calculated as percentage of the maximum amount of amyloid Beta 42 measured in the absence of the test compound. The sigmoidal dose response curves were analyzed using nonlinear regression analysis with percentage of the control plotted against the log concentration of the compound. A 4-parameter equation was used to determine the IC50.
(In general: In Alpha technology, singlet oxygen from a donor bead excites a nearby acceptor bead.)

Experiment [2] deals with Aβ42. Nature of the experiment: Screening for γ-secretase-modulating activity: Aβ42 in supernatant of SKNBE2 cells carrying hAPP 695 wild type (Alphalisa). It counts as cell-based, human. The following applies: overnight incubation, Alphalisa on supernatant. As to the method: as §1, §2, §3, §4, §5
The mark [3] stands for this setting: SKNBE2 human neuroblastoma cells carrying hAPP 695 wild type.
[4] abbreviates: Homo sapiens, SKNBE2, SKNBE2 human neuroblastoma cells carrying hAPP 695 wild type.

The structures appear in SMILES notation.

Usually IC50 stands for the concentration that inhibits the measured activity by half. As for `Cc1cc(F)ccc1C1CCCn2nc(-c3cc4nc(-c5cnn(C)c5)ccc4[nH]3)nc21` (centres unmarked) [Compound 70, 8-(4-fluoro-2-methylphenyl)-5,6,7,8-tetrahydro-2-[5-(1-methyl-1H-pyrazol-4-yl)-1H-pyrrolo[3,2-b]pyridin-2-yl]-[1,2,4]triazolo[1,5-a]pyridine], the IC50 in experiment [1] (setting [3]) was over 10000 nM; in experiment [2] (setting [3]), 1000 nM.
For the compound `Cc1cc(-c2ccc3[nH]c(-c4nc5n(n4)CCCC5c4ccccc4C(F)(F)F)cc3c2)ccn1` (centres unmarked) [Compound 2, 5,6,7,8-tetrahydro-2-[5-(2-methyl-4-pyridinyl)-1H-indol-2-yl]-8-[2-(trifluoromethyl)phenyl]-[1,2,4]triazolo[1,5-a]pyridine], the half-maximal inhibitory concentration (IC50) stood at 7410 nM in experiment [1] (setting [4]) and 22 nM in experiment [2] (setting [4]).
`Cc1cc(F)ccc1C1CCCn2nc(-c3nc4cc(-n5cncc5C)ccc4[nH]3)nc21` (centres unmarked) [Compound 177, 8-(4-fluoro-2-methylphenyl)-5,6,7,8-tetrahydro-2-[5-(5-methyl-1H-imidazol-1-yl)-1H-benzimidazol-2-yl]-[1,2,4]triazolo[1,5-a]pyridine]: the IC50 in experiment [1] (setting [4]) was over 10000 nM; in experiment [2] (setting [4]), 2510 nM.
In the case of `COc1c(C#N)ccc2[nH]c(-c3nc4n(n3)CCOC4c3c(F)cccc3C(F)(F)F)cc12` (centres unmarked) [Compound 162, 2-[8-[2-fluoro-6-(trifluoromethyl)phenyl]-5,6-dihydro-8H-[1,2,4]triazolo[5,1-c][1,4]oxazin-2-yl]-4-methoxy-1H-indole-5-carbonitrile], the values for the IC50 in experiment [1] (setting [3]) and in experiment [2] (setting [3]) were over 10000 nM and 6920 nM, respectively.
Consider `COc1c(C#N)ccc2[nH]c(-c3nc4n(n3)CCCOC4c3ccc(F)cc3C)cc12` (centres unmarked) [Compound 52, 2-[9-(4-fluoro-2-methylphenyl)-6,7-dihydro-5H,9H-[1,2,4]triazolo[5,1-c][1,4]oxazepin-2-yl]-4-methoxy-1H-indole-5-carbonitrile], for which the IC50 is over 10000 nM in experiment [1] (setting [4]) and 44 nM in experiment [2] (setting [3]).
As for `Cc1cc(F)ccc1C1CCCn2nc(-c3cc4cc(C#N)cnc4[nH]3)nc21` (centres unmarked) [Compound 23, 2-[8-(4-fluoro-2-methylphenyl)-5,6,7,8-tetrahydro[1,2,4]triazolo[1,5-a]pyridin-2-yl]-1H-pyrrolo[2,3-b]pyridine-5-carbonitrile], the concentration for half-maximal inhibition (IC50) in experiment [1] (setting [4]) is over 10000 nM; in experiment [2] (setting [4]), 589 nM.
For the compound `COCc1ccccc1C1CCCn2nc(-c3cc4c(OC)c(C#N)ccc4[nH]3)nc21` (centres unmarked) [Compound 91, 4-methoxy-2-[5,6,7,8-tetrahydro-8-[2-(methoxymethyl)phenyl][1,2,4]triazolo[1,5-a]pyridin-2-yl]-1H-indole-5-carbonitrile], the IC50 is over 10000 nM in experiment [1] (setting [3]) and 1200 nM in experiment [2] (setting [3]).
As to `COc1c(C#N)ccc2[nH]c(-c3nc4n(n3)CCOC4c3ccccc3Cl)cc12` (centres unmarked) [Compound 140, 2-[8-(2-chlorophenyl)-5,6-dihydro-8H-[1,2,4]triazolo[5,1-c][1,4]oxazin-2-yl]-4-methoxy-1H-indole-5-carbonitrile], the IC50 in experiment [1] (setting [3]) is over 10000 nM; in experiment [2] (setting [3]) it was 1150 nM.
Turning to `COc1c(C#N)ccc2[nH]c(-c3cn4c(n3)C(c3cc(C(F)(F)F)ccc3F)OCC4)cc12` (centres unmarked) [Compound 128, 2-[8-[2-fluoro-5-(trifluoromethyl)phenyl]-5,6-dihydro-8H-imidazo[2,1-c][1,4]oxazin-2-yl]-4-methoxy-1H-indole-5-carbonitrile], the concentration for half-maximal inhibition (IC50) is over 10000 nM in experiment [1] (setting [4]) and 60 nM in experiment [2] (setting [3]).
Regarding `Cc1cn(-c2ccc3cc(-c4nc5n(n4)CCCC5c4ccc(F)cc4C)[nH]c3c2)cn1` (centres unmarked) [Compound 93], the IC50 was over 10000 nM in experiment [1] (setting [4]) and 1480 nM in experiment [2] (setting [4]).
In the case of `COc1c(C#N)ccc2[nH]c(-c3nc4n(n3)CCOC4c3cccc(F)c3C(F)(F)F)cc12` (single isomer, unassigned) [Compound 134, 2-[8-[3-fluoro-2-(trifluoromethyl)phenyl]-5,6-dihydro-8H-[1,2,4]triazolo[5,1-c][1,4]oxazin-2-yl]-4-methoxy-1H-indole-5-carbonitrile], the values for the half-maximal inhibitory concentration (IC50) in experiment [1] (setting [3]) and in experiment [2] (setting [3]) were over 10000 nM and 1000 nM, respectively.
With `COc1c(-n2cnc(C)c2)ccc2[nH]c(-c3nc4n(n3)CCCC4c3ccc(F)cc3C)cc12` (single isomer, unassigned) [Compound 83, 8-(4-fluoro-2-methylphenyl)-5,6,7,8-tetrahydro-2-[4-methoxy-5-(4-methyl-1H-imidazol-1-yl)-1H-indol-2-yl]-[1,2,4]triazolo[1,5-a]pyridine], the half-maximal inhibitory concentration (IC50) in experiment [1] (setting [3]) is 2340 nM; in experiment [2] (setting [3]), 14 nM.
For the compound `Cc1cc(F)ccc1C1CCCn2nc(-c3[nH]c4ccc(C#N)cc4c3F)nc21` (single isomer, unassigned) [Compound 181, 3-fluoro-2-[8-(4-fluoro-2-methylphenyl)-5,6,7,8-tetrahydro[1,2,4]triazolo[1,5-a]pyridin-2-yl]-1H-indole-5-carbonitrile], the IC50 is over 10000 nM in experiment [1] (setting [4]) and 5890 nM in experiment [2] (setting [3]).
As for `COCc1ccccc1C1OCCn2cc(-c3cc4c(OC)c(C#N)ccc4[nH]3)nc21` (centres unmarked) [Compound 146, 2-[5,6-dihydro-8-[2-(methoxymethyl)phenyl]-8H-imidazo[2,1-c][1,4]oxazin-2-yl]-4-methoxy-1H-indole-5-carbonitrile], the values for the IC50 in experiment [1] (setting [3]) and in experiment [2] (setting [3]) were over 10000 nM and 6170 nM, respectively.
Turning to `COc1c(C#N)ccc2[nH]c(-c3nc4n(n3)CCOC4c3ccccc3C(F)(F)F)cc12` (single isomer, unassigned) [Compound 57, 2-[5,6-dihydro-8-[2-(trifluoromethyl)phenyl]-8H-[1,2,4]triazolo[5,1-c][1,4]oxazin-2-yl]-4-methoxy-1H-indole-5-carbonitrile], the IC50 in experiment [1] (setting [3]) was over 10000 nM; in experiment [2] (setting [3]), 603 nM.
On to `COc1c(C#N)ccc2[nH]c(-c3cn4c(n3)C(c3c(C)cccc3F)OCC4)cc12` (centres unmarked) [Compound 124, 2-[8-(2-fluoro-6-methylphenyl)-5,6-dihydro-8H-imidazo[2,1-c][1,4]oxazin-2-yl]-4-methoxy-1H-indole-5-carbonitrile], for which the IC50 in experiment [1] (setting [4]) is over 10000 nM; in experiment [2] (setting [3]), 47 nM.
For the compound `COc1c(C#N)ccc2[nH]c(-c3cn4c(n3)C(c3cccc(F)c3C)OCC4)cc12` (centres unmarked) [Compound 40, 2-[8-(3-fluoro-2-methylphenyl)-5,6-dihydro-8H-imidazo[2,1-c][1,4]oxazin-2-yl]-4-methoxy-1H-indole-5-carbonitrile], the half-inhibitory concentration (IC50) was over 10000 nM in experiment [1] (setting [4]) and 35 nM in experiment [2] (setting [3]).
For the compound `Cc1cc(F)ccc1C1OCCn2nc(-c3cc4c(OCC(F)F)c(C#N)ccc4[nH]3)nc21` (centres unmarked) [Compound 168, 4-(2,2-difluoroethoxy)-2-[8-(4-fluoro-2-methylphenyl)-5,6-dihydro-8H-[1,2,4]triazolo[5,1-c][1,4]oxazin-2-yl]-1H-indole-5-carbonitrile], the figures for the IC50 in experiment [1] (setting [4]) and in experiment [2] (setting [4]) were over 10000 nM and 245 nM, respectively.
Consider `Cc1cn(-c2ccc3[nH]c(-c4nc5n(n4)CCCC5c4ccc(F)cc4C)cc3n2)cn1` (centres unmarked) [Compound 66, 8-(4-fluoro-2-methylphenyl)-5,6,7,8-tetrahydro-2-[5-(4-methyl-1H-imidazol-1-yl)-1H-pyrrolo[3,2-b]pyridin-2-yl]-[1,2,4]triazolo[1,5-a]pyridine], for which the half-maximal inhibitory concentration (IC50) in experiment [1] (setting [3]) is over 10000 nM; in experiment [2] (setting [3]), 447 nM.
Turning to `Cc1cc(F)ccc1C1CCCn2nc(-c3cc4cc(C#N)ncc4[nH]3)nc21` (centres unmarked) [Compound 68, 2-[8-(4-fluoro-2-methylphenyl)-5,6,7,8-tetrahydro[1,2,4]triazolo[1,5-a]pyridin-2-yl]-1H-pyrrolo[2,3-c]pyridine-5-carbonitrile], the IC50 in experiment [1] (setting [4]) was over 10000 nM; in experiment [2] (setting [4]), 316 nM.
The matching figures for `COc1c(C#N)ccc2[nH]c(-c3nc4n(n3)CCOC4c3cc(C(F)(F)F)ccc3F)cc12` (centres unmarked) [Compound 121, 2-[8-[2-fluoro-5-(trifluoromethyl)phenyl]-5,6-dihydro-8H-[1,2,4]triazolo[5,1-c][1,4]oxazin-2-yl]-4-methoxy-1H-indole-5-carbonitrile]: over 10000 nM and 110 nM.
The matching figures for `Cc1cc(-c2ccc3[nH]c(-c4nc5n(n4)CCOC5c4ccc(F)cc4C)cc3c2)ccn1` (centres unmarked) [Compound 108, 8-(4-fluoro-2-methylphenyl)-5,6-dihydro-2-[5-(2-methyl-4-pyridinyl)-1H-indol-2-yl]-8H-[1,2,4]triazolo[5,1-c][1,4]oxazine]: over 10000 nM and 40 nM.
